Assay: xn = mol fraction of the nth substance listed
Details: 101 kPa, Liquid; for viscosity: Concentric cylinders viscometry; for mass density: Vibrating tube method

CC(O)CN (stereo not given) [1-amino-2-propanol] + CCC(C)O
Details	mass density, 288.15 K [kg/m3]	mass density, 293.15 K [kg/m3]	mass density, 298.15 K [kg/m3]	mass density, 303.15 K [kg/m3]	mass density, 308.15 K [kg/m3]	viscosity, 288.15 K [mPa·s]	viscosity, 293.15 K [mPa·s]	viscosity, 298.15 K [mPa·s]	viscosity, 303.15 K [mPa·s]	viscosity, 308.15 K [mPa·s]
x1 = 0.1003	823.697	819.706	815.665	811.527	807.298	5.068	4.16	3.45	2.889	2.444
x1 = 0.2005	837.759	833.763	829.72	825.623	821.466	5.97	4.888	4.048	3.378	2.86
x1 = 0.3	852.257	848.265	844.235	840.158	836.03	7.261	5.949	4.884	4.059	3.407
x1 = 0.3999	867.392	863.403	859.38	855.316	851.209	9.219	7.373	5.96	4.898	4.08
x1 = 0.5	882.695	878.701	874.691	870.629	866.532	11.68	9.189	7.338	5.963	4.929
x1 = 0.6001	898.243	894.252	890.255	886.197	882.111	14.95	11.6	9.121	7.316	5.962
x1 = 0.7	914.159	910.183	906.21	902.141	898.074	19.39	14.8	11.45	9.136	7.358
x1 = 0.8	930.494	926.524	922.526	918.502	914.445	25.16	18.77	14.41	11.31	9.005
x1 = 0.8999	947.198	943.272	939.29	935.275	931.229	32.94	24.3	18.35	14.16	11.12
x1 = 1	964.544	960.598	956.618	952.612	948.577	43.7	31.68	23.54	17.89	13.88

Reference: the NIST ThermoML archive (doi:10.1021/je401036f)
